According to ChEMBL document CHEMBL1125208, “Applications of neural networks in quantitative structure-activity relationships of dihydrofolate reductase inhibitors” (J Med Chem, 1991):

Target: T1, Dihydrofolate reductase (Mus musculus) (UniProt P00375)
T1 sequence (whole entry): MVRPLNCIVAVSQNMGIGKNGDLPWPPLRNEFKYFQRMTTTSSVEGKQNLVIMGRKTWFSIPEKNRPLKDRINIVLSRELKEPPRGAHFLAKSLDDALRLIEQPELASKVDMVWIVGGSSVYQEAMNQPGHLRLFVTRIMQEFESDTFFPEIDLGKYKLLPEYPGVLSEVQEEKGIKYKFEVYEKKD
Assay: Inhibition of dihydrofolate reductase from L1210 leukemia tumors

| SMILES | Log 1/C |
| --- | --- |
| CC1(C)N=C(N)N=C(N)N1c1ccc(CC(C(=O)Nc2cccc(S(=O)(=O)F)c2)c2ccccc2)cc1 (configuration not stated) | 6.89 |
| CC1(C)N=C(N)N=C(N)N1c1ccc(CCCCc2ccccc2)c(Cl)c1 | 7.92 |
